From patent US11713338B2, “Cyclic peptides multimers targeting α-4-β-7 integrin” (priority 2016, dated 2023) come the findings set out here.

Experiment [1] addresses T1, recombinant integrin α4β7 (Homo sapiens, UniProt P13612+P26010, DEL724-798).
T1 construct: purchased R&D Systems 5397-A3-050
T1 sequence (P13612 34-970 limits assumed): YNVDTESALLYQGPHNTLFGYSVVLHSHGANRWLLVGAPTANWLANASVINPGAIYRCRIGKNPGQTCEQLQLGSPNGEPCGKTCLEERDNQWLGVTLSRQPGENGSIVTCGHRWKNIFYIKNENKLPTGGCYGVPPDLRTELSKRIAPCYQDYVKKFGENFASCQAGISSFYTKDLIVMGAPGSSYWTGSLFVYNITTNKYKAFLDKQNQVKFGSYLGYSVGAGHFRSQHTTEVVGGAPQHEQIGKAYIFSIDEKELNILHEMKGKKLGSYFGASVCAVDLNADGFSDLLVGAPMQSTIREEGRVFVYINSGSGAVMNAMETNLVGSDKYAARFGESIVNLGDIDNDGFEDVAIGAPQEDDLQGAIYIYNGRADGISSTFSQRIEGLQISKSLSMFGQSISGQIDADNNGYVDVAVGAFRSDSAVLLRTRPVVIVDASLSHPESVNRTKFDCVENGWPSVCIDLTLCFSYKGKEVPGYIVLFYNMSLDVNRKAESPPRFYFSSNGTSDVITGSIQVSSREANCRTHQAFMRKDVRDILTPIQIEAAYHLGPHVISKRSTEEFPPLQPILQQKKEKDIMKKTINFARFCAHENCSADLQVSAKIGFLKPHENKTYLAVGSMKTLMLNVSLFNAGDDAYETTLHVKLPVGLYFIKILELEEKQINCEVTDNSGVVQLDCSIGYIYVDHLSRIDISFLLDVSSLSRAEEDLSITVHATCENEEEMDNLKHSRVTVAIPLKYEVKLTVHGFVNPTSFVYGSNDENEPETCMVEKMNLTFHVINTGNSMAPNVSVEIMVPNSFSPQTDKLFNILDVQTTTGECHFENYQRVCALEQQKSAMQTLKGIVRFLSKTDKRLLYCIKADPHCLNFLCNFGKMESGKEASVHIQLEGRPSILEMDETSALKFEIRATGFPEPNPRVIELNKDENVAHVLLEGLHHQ
T1 sequence (P26010 20-723 limits assumed): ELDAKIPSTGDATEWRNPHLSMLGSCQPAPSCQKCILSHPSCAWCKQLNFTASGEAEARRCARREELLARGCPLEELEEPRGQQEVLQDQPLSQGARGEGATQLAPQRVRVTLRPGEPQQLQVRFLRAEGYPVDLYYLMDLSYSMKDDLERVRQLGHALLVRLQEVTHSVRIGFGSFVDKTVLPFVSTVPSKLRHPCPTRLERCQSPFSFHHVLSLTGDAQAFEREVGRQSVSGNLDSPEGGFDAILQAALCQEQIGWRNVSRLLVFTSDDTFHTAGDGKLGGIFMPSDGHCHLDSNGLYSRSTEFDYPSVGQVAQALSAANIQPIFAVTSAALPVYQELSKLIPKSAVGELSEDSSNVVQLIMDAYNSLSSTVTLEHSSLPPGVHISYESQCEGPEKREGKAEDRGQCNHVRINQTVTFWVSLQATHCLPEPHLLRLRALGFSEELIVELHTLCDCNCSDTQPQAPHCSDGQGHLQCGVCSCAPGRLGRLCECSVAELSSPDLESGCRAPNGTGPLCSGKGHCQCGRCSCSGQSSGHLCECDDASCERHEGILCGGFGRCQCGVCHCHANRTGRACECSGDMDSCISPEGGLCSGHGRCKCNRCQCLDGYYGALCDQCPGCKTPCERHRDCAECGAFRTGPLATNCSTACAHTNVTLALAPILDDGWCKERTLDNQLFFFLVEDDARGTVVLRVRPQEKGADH
The experiment in a line: Integrin α4β7—MAdCAM-1 ELISA competition assay. It is filed as binding. As to conditions: for ELISA Assay Ratio b1/b7: ratio of a4b1 to a4b7 ELISA IC50; for IC50: read-out: ELISA a4b7 Assay IC50. (ELISA stands for enzyme-linked immunosorbent assay.)

The target of experiment [2] is T2, recombinant integrin α4β1 (Homo sapiens, UniProt P05556+P13612).
T2 construct: purchased R&D Systems 5397-A3-050
The experiment can be described thus: Integrin α4β1—VCAM-1 competition ELISA. The experiment is classed as binding. To be noted: read-out: ELISA a4b1 Assay IC50. The gist of the method: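 Compound dilutions added to coated plate and shaken at room temperature for 2 h (300 rpm) to binding equilibrium. Wash buffer: 50 mM Tris, 100 mM NaCl, 1 mM MnCl2, 0.05% Tween. Bound Fc-tagged ligand detected with anti-human IgG Fc-HRP, 1 h at room temperature.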

T2 sequence (P05556 21-728 limits assumed, one chain of several): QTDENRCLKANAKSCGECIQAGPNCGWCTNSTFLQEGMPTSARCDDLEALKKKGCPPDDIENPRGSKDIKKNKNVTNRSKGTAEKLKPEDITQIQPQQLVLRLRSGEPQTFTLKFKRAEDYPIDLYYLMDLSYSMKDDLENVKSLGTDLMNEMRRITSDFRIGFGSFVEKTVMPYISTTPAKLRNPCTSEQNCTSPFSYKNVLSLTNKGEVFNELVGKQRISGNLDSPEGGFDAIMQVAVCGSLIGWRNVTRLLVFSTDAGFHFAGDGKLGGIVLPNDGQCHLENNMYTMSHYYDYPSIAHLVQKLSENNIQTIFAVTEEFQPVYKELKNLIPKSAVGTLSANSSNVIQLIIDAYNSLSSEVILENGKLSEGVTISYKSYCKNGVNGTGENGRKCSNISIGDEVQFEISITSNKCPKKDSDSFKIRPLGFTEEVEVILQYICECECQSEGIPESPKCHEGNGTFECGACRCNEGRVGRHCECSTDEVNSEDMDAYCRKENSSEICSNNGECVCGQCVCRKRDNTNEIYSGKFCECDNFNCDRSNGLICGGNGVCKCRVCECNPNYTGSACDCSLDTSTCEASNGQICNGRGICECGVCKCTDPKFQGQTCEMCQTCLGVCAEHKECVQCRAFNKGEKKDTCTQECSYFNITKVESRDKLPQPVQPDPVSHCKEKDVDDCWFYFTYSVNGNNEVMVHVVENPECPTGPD

As usually defined, the IC50 is the midpoint of a concentration-inhibition curve. Regarding `COc1ccccc1-c1ccccc1C[C@@H]1NC(=O)[C@@H]2CCCN2[C@H](C(=O)NC(C)(C)C)[C@H](C)NC(=O)[C@H]([C@@H](C)O)NC(=O)[C@H](CC(=O)O)NC(=O)[C@H](CC(C)C)NC(=O)[C@H]2CCCCN2C1=O` [Compound 135], in experiment [1], the “ELISA Assay Ratio b1/b7” value came to 4.9 and the IC50 came to 24 nM. Besides, the IC50 in experiment [2] amounted to 119 nM.
Regarding `CC(C)C[C@@H]1NC(=O)CN(C)C(=O)[C@H](Cc2cccc(I)c2)NC(=O)[C@@H]2CCCN2[C@H](C(=O)NC(C)(C)C)[C@H](C)NC(=O)[C@H]([C@@H](C)O)NC(=O)[C@H](CC(=O)O)NC1=O` [Compound 106], in experiment [1], the “ELISA Assay Ratio b1/b7” value is on record as 18.7 and the IC50 turned out to be 59 nM. Further, in experiment [2], the concentration for half-maximal inhibition (IC50) turned out to be 1110 nM.
Consider `COc1cccc(-c2ccccc2C[C@@H]2NC(=O)[C@@H]3CCCN3[C@H](C(=O)NC(C)(C)C)[C@H](C)NC(=O)[C@H]([C@@H](C)O)NC(=O)[C@H](CC(=O)O)NC(=O)[C@H](CC(C)C)NC(=O)[C@H]3CCCCN3C2=O)c1` [Compound 136], for which, in experiment [1], the “ELISA Assay Ratio b1/b7” value came out at 6.6. For the same compound, the IC50 in experiment [1] worked out at 32 nM; in experiment [2] it was 209 nM.
As to `Cc1cccc(C)c1-c1ccc(C[C@@H]2NC(=O)[C@@H]3CCCN3[C@H](C(=O)NC(C)(C)C)[C@H](C)NC(=O)[C@H]([C@@H](C)O)NC(=O)[C@H](CC(=O)O)NC(=O)[C@H](CC(C)C)NC(=O)C[C@H](CCCCN)NC2=O)cc1` [Compound 268], the “ELISA Assay Ratio b1/b7” value in experiment [1] came to 24.6. Further, the IC50 in experiment [1] was 76 nM; in experiment [2], 1870 nM.
For the compound `CC(C)C[C@@H]1NC(=O)[C@H]2C[C@H](O)CN2C(=O)[C@H](Cc2cscn2)NC(=O)[C@@H]2CCCN2[C@H](C(=O)NC(C)(C)C)[C@H](C)NC(=O)[C@H]([C@@H](C)O)NC(=O)[C@H](CC(=O)O)NC1=O` [Compound 151], in experiment [1], the “ELISA Assay Ratio b1/b7” value worked out at 4.1 and the IC50 amounted to 53 nM. Further, the IC50 in experiment [2] worked out at 218 nM.
Regarding `CC(C)C[C@@H]1NC(=O)C[C@H](CCCCN)NC(=O)[C@](C)(Cc2ccccc2)NC(=O)[C@@H]2CCCN2[C@H](C(=O)NC(C)(C)C)[C@H](C)NC(=O)[C@H]([C@@H](C)O)NC(=O)[C@H](CC(=O)O)NC1=O` [Compound 263], the “ELISA Assay Ratio b1/b7” value in experiment [1] is 23.1. For the same compound, the half-inhibitory concentration (IC50) in experiment [1] is 102 nM; in experiment [2] it was 2350 nM.
Consider `CC(C)C[C@@H]1NC(=O)[C@H]2CCCCN2C(=O)[C@@H]2CCCN2[C@H](C(=O)NC(C)(C)C)[C@H](C)NC(=O)[C@H]([C@@H](C)O)NC(=O)[C@H](CC(=O)O)NC1=O` [Compound 51], for which, in experiment [1], the “ELISA Assay Ratio b1/b7” value stood at 3.3 and the half-maximal inhibitory concentration (IC50) amounted to 31 nM. Besides, the IC50 in experiment [2] came out at 102 nM.
`CC(C)C[C@@H]1NC(=O)C2(Cc3ccccc3C2)NC(=O)[C@@H]2CCCN2[C@H](C(=O)NC(C)(C)C)[C@H](C)NC(=O)[C@H]([C@@H](C)O)NC(=O)[C@H](CC(=O)O)NC1=O` [Compound 89]: in experiment [1], the “ELISA Assay Ratio b1/b7” value is 14.4 and the IC50 was found to be 16 nM. The IC50 in experiment [2] turned out to be 232 nM.
On to `CC(C)C[C@@H]1NC(=O)[C@@H](CCCNC(=N)N)N(C)C(=O)[C@H](Cc2ccc(O)cc2)NC(=O)[C@@H]2CCCN2[C@H](C(=O)NC(C)(C)C)[C@H](C)NC(=O)[C@H]([C@@H](C)O)NC(=O)[C@H](CC(=O)O)NC1=O` [Compound 157], for which, in experiment [1], the “ELISA Assay Ratio b1/b7” value was found to be 55.3 and the IC50 was determined as 67 nM. The IC50 in experiment [2] stood at 3710 nM.
As to `CC(C)C[C@@H]1NC(=O)[C@H]2C[C@@H](O)CN2C(=O)[C@H](Cc2ccc(O)cc2)NC(=O)[C@@H]2CCCN2[C@H](C(=O)NC(C)(C)C)[C@H](C)NC(=O)[C@H]([C@@H](C)O)NC(=O)[C@H](CC(=O)O)NC1=O` [Compound 141], in experiment [1], the “ELISA Assay Ratio b1/b7” value was 2.0 and the IC50 was 19 nM. Also, the IC50 in experiment [2] was determined as 36 nM.
In the same order, the values of `CC(C)C[C@@H]1NC(=O)C[C@H](CCCCN)NC(=O)C2(Cc3ccccc3C2)NC(=O)[C@@H]2CCCN2[C@H](C(=O)NC(C)(C)C)[C@H](C)NC(=O)[C@H]([C@@H](C)O)NC(=O)[C@H](CC(=O)O)NC1=O` [Compound 288] are 12.2, 136 nM and 1660 nM.
Consider `C=CCOc1ccc(C[C@@H]2NC(=O)[C@@H]3CCCN3[C@H](C(=O)NC(C)(C)C)[C@H](C)NC(=O)[C@H]([C@@H](C)O)NC(=O)[C@H](CC(=O)O)NC(=O)[C@H](CC(C)C)NC(=O)CNC2=O)cc1` [Compound 163], for which, in experiment [1], the “ELISA Assay Ratio b1/b7” value was 11.0 and the IC50 amounted to 126 nM. The IC50 in experiment [2] stood at 1390 nM.
In the same order, the values of `CC(C)C[C@@H]1NC(=O)[C@@H](CCCN(C)C)NC(=O)[C@@H]2CCCN2[C@H](C(=O)NC(C)(C)C)[C@H](C)NC(=O)[C@H]([C@@H](C)O)NC(=O)[C@H](CC(=O)O)NC1=O` [Compound 83] are 6.9, 179 nM and 1230 nM.
`CC(C)C[C@@H]1NC(=O)CN(C)C(=O)[C@H](Cc2ccc(-c3ccccc3)cc2)NC(=O)[C@@H]2CCCN2[C@H](C(=O)NC(C)(C)C)[C@H](C)NC(=O)[C@H]([C@@H](C)O)NC(=O)[C@H](CC(=O)O)NC1=O` [Compound 116]: in experiment [1], the “ELISA Assay Ratio b1/b7” value came out at 8.4 and the IC50 turned out to be 166 nM. Besides, the IC50 in experiment [2] amounted to 1380 nM.
In the case of `CC(C)C[C@@H]1NC(=O)[C@H](CC2CCCCC2)NC(=O)[C@@H]2CCCN2[C@H](C(=O)NC(C)(C)C)[C@H](C)NC(=O)[C@H]([C@@H](C)O)NC(=O)[C@H](CC(=O)O)NC1=O` [Compound 7], in experiment [1], the “ELISA Assay Ratio b1/b7” value is reported as 1.6 and the IC50 turned out to be 117 nM. Also, in experiment [2], the concentration for half-maximal inhibition (IC50) is 190 nM.
